Experimental data published in PubChem BioAssay (NCI).
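GI50 = concentration required for 50% inhibition of growth. At the TGI there is no net growth.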

Assays:
Assay in all cases: DTP human tumour cell line panel, 384-well format
SR leukemia = test system: SR leukemia
CAKI-1 renal = test system: CAKI-1 renal
HT29 colon = test system: HT29 colon
A498 renal = test system: A498 renal
ACHN renal = test system: ACHN renal
OVCAR-5 ovarian = test system: OVCAR-5 ovarian
NCI-H23 lung = test system: NCI-H23 lung
HL-60(TB) leukemia = test system: HL-60(TB) leukemia
SF-539 CNS = test system: SF-539 CNS
UO-31 renal = test system: UO-31 renal
MDA-MB-435 melanoma = test system: MDA-MB-435 melanoma
RPMI-8226 leukemia = test system: RPMI-8226 leukemia
MDA-MB-231 breast = test system: MDA-MB-231 breast
OVCAR-4 ovarian = test system: OVCAR-4 ovarian
SW-620 colon = test system: SW-620 colon
SK-OV-3 ovarian = test system: SK-OV-3 ovarian
EKVX NSCLC = test system: EKVX NSCLC
CCRF-CEM leukemia = test system: CCRF-CEM leukemia
HOP-92 NSCLC = test system: HOP-92 NSCLC
SK-MEL-2 melanoma = test system: SK-MEL-2 melanoma
K-562 leukemia = test system: K-562 leukemia
UACC-257 melanoma = test system: UACC-257 melanoma
IGROV1 ovarian = test system: IGROV1 ovarian
786-0 renal = test system: 786-0 renal
HCC-2998 colon = test system: HCC-2998 colon
MALME-3M melanoma = test system: MALME-3M melanoma
NCI-H460 NSCLC = test system: NCI-H460 NSCLC
HS 578T breast = test system: HS 578T breast
HCT-116 colon = test system: HCT-116 colon
KM12 colon = test system: KM12 colon
COLO 205 colon = test system: COLO 205 colon
T-47D breast = test system: T-47D breast
HCT-15 colon = test system: HCT-15 colon
MCF7 breast = test system: MCF7 breast
A549 NSCLC = test system: A549 NSCLC
NCI-H322M lung = test system: NCI-H322M lung
DU-145 prostate = test system: DU-145 prostate
SNB-75 CNS = test system: SNB-75 CNS
BT-549 breast = test system: BT-549 breast
MOLT-4 leukemia = test system: MOLT-4 leukemia
SF-295 CNS = test system: SF-295 CNS
UACC-62 melanoma = test system: UACC-62 melanoma
SNB-19 CNS = test system: SNB-19 CNS
M14 melanoma = test system: M14 melanoma
U251 glioblastoma = test system: U251 glioblastoma
OVCAR-3 ovarian = test system: OVCAR-3 ovarian
HOP-62 NSCLC = test system: HOP-62 NSCLC

**Q.** For `CC(C)N(CCCNC(=O)Nc1ccc(C(C)(C)C)cc1)C[C@H]1O[C@@H](n2ccc3c(N)ncnc32)[C@H](O)[C@@H]1O`, which GI50 (SR leukemia) is on record?
**A.** Its GI50 is over 100 µM.

**Q.** And the TGI (SR leukemia)?
**A.** Its TGI is over 100 µM.

**Q.** And the GI50 (CAKI-1 renal)?
**A.** The GI50 was over 100 µM.

**Q.** What about the TGI (CAKI-1 renal) of the same compound?
**A.** Its TGI is over 100 µM.

**Q.** What about the GI50 (HT29 colon) of the same compound?
**A.** Its GI50 is over 87.2 µM.

**Q.** What about the TGI (HT29 colon) of the same compound?
**A.** Its TGI is over 100 µM.

**Q.** What about the GI50 (A498 renal) of the same compound?
**A.** Its GI50 is over 100 µM.

**Q.** What about the TGI (A498 renal) of the same compound?
**A.** Its TGI is over 100 µM.

**Q.** What about the GI50 (ACHN renal) of the same compound?
**A.** The GI50 was over 100 µM.

**Q.** And the TGI (ACHN renal)?
**A.** Its TGI is over 100 µM.

**Q.** What about the GI50 (OVCAR-5 ovarian) of the same compound?
**A.** Its GI50 is over 100 µM.

**Q.** What about the TGI (OVCAR-5 ovarian) of the same compound?
**A.** The TGI was over 100 µM.

**Q.** And the GI50 (NCI-H23 lung)?
**A.** Its GI50 is over 100 µM.

**Q.** And the TGI (NCI-H23 lung)?
**A.** The TGI was over 100 µM.

**Q.** And the GI50 (HL-60(TB) leukemia)?
**A.** Its GI50 is over 92.8 µM.

**Q.** What about the TGI (HL-60(TB) leukemia) of the same compound?
**A.** Its TGI is over 100 µM.

**Q.** And the GI50 (SF-539 CNS)?
**A.** The GI50 was over 100 µM.

**Q.** And the TGI (SF-539 CNS)?
**A.** Its TGI is over 100 µM.

**Q.** What about the GI50 (UO-31 renal) of the same compound?
**A.** Its GI50 is over 100 µM.

**Q.** And the TGI (UO-31 renal)?
**A.** The TGI was over 100 µM.

**Q.** What about the GI50 (MDA-MB-435 melanoma) of the same compound?
**A.** Its GI50 is over 100 µM.

**Q.** And the TGI (MDA-MB-435 melanoma)?
**A.** Its TGI is over 100 µM.

**Q.** What about the GI50 (RPMI-8226 leukemia) of the same compound?
**A.** Its GI50 is 18.9 µM.

**Q.** And the TGI (RPMI-8226 leukemia)?
**A.** The TGI was over 100 µM.

**Q.** And the GI50 (MDA-MB-231 breast)?
**A.** The GI50 was over 100 µM.

**Q.** What about the TGI (MDA-MB-231 breast) of the same compound?
**A.** The TGI was over 100 µM.

**Q.** And the GI50 (OVCAR-4 ovarian)?
**A.** The GI50 was over 100 µM.

**Q.** What about the TGI (OVCAR-4 ovarian) of the same compound?
**A.** Its TGI is over 100 µM.

**Q.** And the GI50 (SW-620 colon)?
**A.** Its GI50 is over 100 µM.

**Q.** And the TGI (SW-620 colon)?
**A.** Its TGI is over 100 µM.

**Q.** What about the GI50 (SK-OV-3 ovarian) of the same compound?
**A.** Its GI50 is over 100 µM.

**Q.** What about the TGI (SK-OV-3 ovarian) of the same compound?
**A.** Its TGI is over 100 µM.

**Q.** And the GI50 (EKVX NSCLC)?
**A.** Its GI50 is over 100 µM.

**Q.** And the TGI (EKVX NSCLC)?
**A.** The TGI was over 100 µM.

**Q.** What about the GI50 (CCRF-CEM leukemia) of the same compound?
**A.** Its GI50 is over 95.3 µM.

**Q.** What about the TGI (CCRF-CEM leukemia) of the same compound?
**A.** Its TGI is over 100 µM.

**Q.** What about the GI50 (HOP-92 NSCLC) of the same compound?
**A.** The GI50 was over 100 µM.

**Q.** What about the TGI (HOP-92 NSCLC) of the same compound?
**A.** Its TGI is over 100 µM.

**Q.** And the GI50 (SK-MEL-2 melanoma)?
**A.** Its GI50 is over 100 µM.

**Q.** What about the TGI (SK-MEL-2 melanoma) of the same compound?
**A.** The TGI was over 100 µM.

**Q.** And the GI50 (K-562 leukemia)?
**A.** Its GI50 is over 100 µM.

**Q.** What about the TGI (K-562 leukemia) of the same compound?
**A.** Its TGI is over 100 µM.

**Q.** And the GI50 (UACC-257 melanoma)?
**A.** Its GI50 is 41.5 µM.

**Q.** What about the TGI (UACC-257 melanoma) of the same compound?
**A.** Its TGI is over 95.1 µM.

**Q.** And the GI50 (IGROV1 ovarian)?
**A.** Its GI50 is over 72.4 µM.

**Q.** What about the TGI (IGROV1 ovarian) of the same compound?
**A.** Its TGI is over 100 µM.

**Q.** And the GI50 ([…]-0 renal)?
**A.** The GI50 was over 100 µM.

**Q.** What about the TGI (786-0 renal) of the same compound?
**A.** The TGI was over 100 µM.

**Q.** What about the GI50 (HCC-2998 colon) of the same compound?
**A.** Its GI50 is over 100 µM.

**Q.** What about the TGI (HCC-2998 colon) of the same compound?
**A.** The TGI was over 100 µM.

**Q.** What about the GI50 (MALME-3M melanoma) of the same compound?
**A.** Its GI50 is 61.6 µM.

**Q.** And the TGI (MALME-3M melanoma)?
**A.** Its TGI is over 100 µM.

**Q.** What about the GI50 (NCI-H460 NSCLC) of the same compound?
**A.** The GI50 was over 100 µM.

**Q.** And the TGI (NCI-H460 NSCLC)?
**A.** The TGI was over 100 µM.

**Q.** What about the GI50 (HS 578T breast) of the same compound?
**A.** The GI50 was over 100 µM.

**Q.** What about the TGI (HS 578T breast) of the same compound?
**A.** The TGI was over 100 µM.

**Q.** And the GI50 (HCT-116 colon)?
**A.** The GI50 was over 100 µM.

**Q.** What about the TGI (HCT-116 colon) of the same compound?
**A.** Its TGI is over 100 µM.

**Q.** What about the GI50 (KM12 colon) of the same compound?
**A.** Its GI50 is over 100 µM.

**Q.** What about the TGI (KM12 colon) of the same compound?
**A.** The TGI was over 100 µM.

**Q.** What about the GI50 (COLO 205 colon) of the same compound?
**A.** The GI50 was over 100 µM.

**Q.** What about the TGI (COLO 205 colon) of the same compound?
**A.** Its TGI is over 100 µM.

**Q.** And the GI50 (T-47D breast)?
**A.** The GI50 was over 96.4 µM.

**Q.** And the TGI (T-47D breast)?
**A.** Its TGI is over 100 µM.

**Q.** And the GI50 (HCT-15 colon)?
**A.** Its GI50 is over 100 µM.

**Q.** What about the TGI (HCT-15 colon) of the same compound?
**A.** Its TGI is over 100 µM.

**Q.** What about the GI50 (MCF7 breast) of the same compound?
**A.** Its GI50 is over 100 µM.

**Q.** And the TGI (MCF7 breast)?
**A.** The TGI was over 100 µM.

**Q.** What about the GI50 (A549 NSCLC) of the same compound?
**A.** The GI50 was over 100 µM.

**Q.** What about the TGI (A549 NSCLC) of the same compound?
**A.** Its TGI is over 100 µM.

**Q.** What about the GI50 (NCI-H322M lung) of the same compound?
**A.** Its GI50 is over 100 µM.

**Q.** And the TGI (NCI-H322M lung)?
**A.** Its TGI is over 100 µM.

**Q.** What about the GI50 (DU-145 prostate) of the same compound?
**A.** Its GI50 is over 100 µM.

**Q.** What about the TGI (DU-145 prostate) of the same compound?
**A.** Its TGI is over 100 µM.

**Q.** What about the GI50 (SNB-75 CNS) of the same compound?
**A.** The GI50 was over 100 µM.

**Q.** And the TGI (SNB-75 CNS)?
**A.** The TGI was over 100 µM.

**Q.** What about the GI50 (BT-549 breast) of the same compound?
**A.** Its GI50 is over 100 µM.

**Q.** What about the TGI (BT-549 breast) of the same compound?
**A.** Its TGI is over 100 µM.

**Q.** What about the GI50 (MOLT-4 leukemia) of the same compound?
**A.** The GI50 was 44.7 µM.

**Q.** What about the TGI (MOLT-4 leukemia) of the same compound?
**A.** The TGI was over 100 µM.

**Q.** And the GI50 (SF-295 CNS)?
**A.** Its GI50 is over 100 µM.

**Q.** And the TGI (SF-295 CNS)?
**A.** The TGI was over 100 µM.

**Q.** What about the GI50 (UACC-62 melanoma) of the same compound?
**A.** The GI50 was over 100 µM.

**Q.** What about the TGI (UACC-62 melanoma) of the same compound?
**A.** The TGI was over 100 µM.

**Q.** What about the GI50 (SNB-19 CNS) of the same compound?
**A.** Its GI50 is over 100 µM.

**Q.** And the TGI (SNB-19 CNS)?
**A.** The TGI was over 100 µM.

**Q.** What about the GI50 (M14 melanoma) of the same compound?
**A.** The GI50 was over 100 µM.

**Q.** And the TGI (M14 melanoma)?
**A.** The TGI was over 100 µM.

**Q.** What about the GI50 (U251 glioblastoma) of the same compound?
**A.** The GI50 was over 100 µM.

**Q.** What about the TGI (U251 glioblastoma) of the same compound?
**A.** Its TGI is over 100 µM.

**Q.** And the GI50 (OVCAR-3 ovarian)?
**A.** The GI50 was over 100 µM.

**Q.** And the TGI (OVCAR-3 ovarian)?
**A.** Its TGI is over 100 µM.

**Q.** And the GI50 (HOP-62 NSCLC)?
**A.** Its GI50 is over 100 µM.

**Q.** What about the TGI (HOP-62 NSCLC) of the same compound?
**A.** The TGI was over 100 µM.
